Test results: article PMC10465493, “Osteogenic induction of asiatic acid derivatives in human periodontal ligament stem cells” (Scientific Reports, 2023)
Converted amounts (≈) assume the structure as drawn. Like-named read-outs stand apart in the source and are kept apart here.

Assays:
[1] = Aqueous solubility by gravimetric method; assay type: physicochemical; settings: thermodynamic from solid, ultrapure water, shaken 24 h, n = 6
Procedure: Aqueous solubility of AA and its derivatives were screened using a gravimetric method. Briefly, AA and the derivatives were dissolved in an excess amount in ultrapure water, and the samples were shaken at room temperature and 37 °C for 24 h. After that, the samples were centrifuged to separate the undissolved compounds. The specific volume of supernatants was then collected and lyophilised. The residual solid after lyophilisation was weighed using a 7-digit balance (XPR2u, Mettler Toledo, OH, USA), and the maximum solubility in water at the different temperature was calculated based on the volume of the collected solution of the compounds. […]

[2] = tested on: hPDLSCs; test: Cell viability, PrestoBlue resazurin assay; assay type: cell-based, human; settings: 300 nM, up to 5 days
Procedure: (§1) Stock solutions of AA, 501, 502, 503, and 506 were prepared in DMSO at the concentration of 100 µM, before diluting in culture medium to the desired concentration. Cell viability after exposure to the drugs was investigated using a PrestoBlue™ resazurin assay according to the manufacturer’s protocol. Cells with a density of 60,000 cells/well were plated in 24 well-plates and cultured in a normal growth medium for 24 h. Then the cells were treated with 300 nM AA and solutions of, 501, 502, 503, and 506. After 24-h and 5-day incubation, the cultures were treated with resazurin working solution, and the fluorescence intensity at an emission wavelength of 590 nm was measured with excitation of 560-nm wavelength using a microplate reader (Synergy H1, Biotek multi-mode reader, Winooski, VT, USA). Untreated cells were used as the control, and the experiment was performed on different cell lines of at least five donors.

[3] = tested on: hPDLSCs; test: mRNA expression of osteogenic marker genes by quantitative RT-PCR; assay type: cell-based, human; settings: for mRNA expression of all markers (BMP2, RUNX2, COL1A1, WNT3A): 100 nM (10 nM for 503)
Procedure: Cells were seeded in 24 well-plates at a density of 60,000 cells/well and treated with AA or the derivatives at different concentrations. The media was changed every other day to ensure the continuous activities of AA derivatives. For Erk inhibition experiments, cells were pretreated with 2.5 nM Erk inhibitor (cat. No. 328006, Calbiochem, San Diego, CA, USA) for 2 h prior to the treatment of AA derivatives. At each time point, the total RNA was extracted using TRIzol® reagent following the standard protocol, and the RNA content and purity were measured using a microvolume spectrophotometer (NanoDrop™ One, Thermo Fisher Scientific, USA). Then, 1 μg of RNA sample was reverse-transcribed into complementary DNA (cDNA) using Improm II reverse transcription system (Promega, USA). The expression levels of the target genes were detected by real-time polymerase chain reaction using the SYBR green detection system (FastStart Essential DNA Green Master, Roche Diagnostics, Switzerland) on the MiniOpticon™ RT-PCR system (Bio-Rad, USA). The quantitative RT-PCR was carried out using a LightCycler® 96 (Roche Diagnostics, Switzerland). The transcript expression of GAPDH was used as the internal control. The relative gene expression analysis was performed using the CFX Manager software (Bio-Rad, USA). The expression value was normalised using an expression value of cellular housekeeping gene, GAPDH, and the control was considered for each respective day.

[4] = tested on: hPDLSCs; test: BMP2 protein expression by ELISA; assay type: cell-based, human; settings: 100 to 300 nM, D1 and D3, general medium
Procedure: The expression levels of targeted proteins were analysed by a sandwich ELISA assay. Firstly, the cells were lysed, and the amount of protein was analysed using a Bio-Rad BCA protein assay kit (Bio‐Rad Laboratories, USA). Following the standard protocol, the target proteins were analysed using an ELISA kit (R&D Systems, USA).

[5] = tested on: hPDLSCs; test: Alkaline phosphatase (ALP) activity assay; assay type: cell-based, human; settings: 100, 200, 300 nM, D3, normalised to total cellular protein
Procedure: At the designated time points, the ALP activity was measured. Cells treated with different concentrations of AA derivatives were collected, washed with PBS, and lysed with alkaline lysis buffer. The cell lysate was incubated with a mixture containing 2 mg/mL p-nitrophenyl phosphate, 0.1 M 2-amino-2-methyl-1-propanol and 2 mM MgCl2. After incubation at 37 °C for 30 min, the reaction was terminated by addition of 50 mM NaOH. The absorbance at 410 nm was measured, and the quantitative data was normalised by the amount of total cellular protein.

[6] = tested on: hPDLSCs; test: Von Kossa and Alizarin red S staining for mineralisation; assay type: cell-based, human; settings: 300 nM, 14 days, general medium, compared to osteogenic medium (positive control)
Procedure: In vitro mineralisation was visualised following calcium staining using Von Kossa’s method and Alizarin red S staining according to an established protocol. Briefly, on day 14, the cells were washed and fixed with cold methanol for 10 min before rinsing with deionised water. Von Kossa staining was performed by treating the fixed cells with 5%w/v silver nitrate solution for 30 min. For Alizarin Red S staining, the Alizarin Red S solution (0.5% w/v, pH 4.2) was incubated with the fixed cells for 5 min. The mineralised nodule formation was observed under a phase-contrast microscope (Nikon ECLIPSE Ts2, Nikon, USA). Cells cultured in a normal growth medium were used as the negative control. The cells cultured in an osteogenic medium (DMEM supplemented with […] ascorbic acid, 100 nM dexamethasone, and 10 mM β-glycerophosphate) were regarded as the positive control.

[7] = Cell viability, PrestoBlue resazurin assay; assay type: cell-based, human; settings: human, hPDLSCs, 300 nM; for viability at 24 h, 0.3 µM: day 1, general medium
Procedure: as §1

[8] = tested on: osteoclastogenesis; design: method as in PMID 32292339; settings: cited from earlier work
[9] = octanol/water, cited from earlier work
[10] = 37 °C, read-out: Experimental solubility in water at 37 °C (average ± SD)
[11] = room temperature, read-out: Experimental solubility in water at room temperature (average ± SD)
[12] = 300 nM, days 1 and 3, general medium

C[C@H]1[C@H](C)CC[C@]2(C(=O)NCCCN(C)C)CC[C@]3(C)C(=CCC4[C@@]5(C)C[C@@H](O)[C@H](O)[C@@](C)(CO)C5CC[C@]43C)[C@H]12 (stereo partly drawn) [compound 506]
solubility at 24 h [1, 10]: 852 ± 85.6 µg/mL (≈ 1490 µM)
solubility at 24 h [1, 11]: 810 ± 36 µg/mL (≈ 1410 µM)
Toxicity to hPDLSCs [2]: no significant toxicity
BMP2 mRNA expression ([3]; 100 nM, 24 h, normal growth medium): high expression
WNT3A expression with Erk inhibitor ([3]; 300 nM 506, pretreated with Erk inhibitor, general medium): inhibited
BMP2 expression ([3]; 300 nM, day 1): High expression
BMP2 expression ([3]; 300 nM, day 3): declining to a control level
WNT3A transcript level ([3]; 300 nM, day 3): elevated transcript level
COL1A1 expression level [3, 12]: no observable change
RUNX2 expression level [3, 12]: no observable change
ALP expression level compared to control ([3]; 300 nM, general medium): enhanced
BMP2 expression level compared to control ([3]; 300 nM, general medium): enhanced
IBSP expression level compared to control ([3]; 300 nM, general medium): enhanced
OSX expression level compared to control ([3]; 300 nM, general medium): enhanced
BMP2 gene expression ([3]; 100 to 300 nM, first day after exposure, general medium): elevated transcript level at the lower concentrations (100 and 200 nM)
BMP2 protein expression [4]: dose-dependent increase
ALP activity [5]: dose-dependent increase
Tissue mineralisation (calcium deposition) [6]: comparable to those same cells cultured in an osteogenic medium

C[C@H]1[C@H](C)CC[C@]2(C(=O)O)CC[C@]3(C)C(=CC[C@@H]4[C@@]5(C)C[C@@H](O)[C@H](O)[C@@](C)(CO)[C@@H]5CC[C@]43C)[C@H]12 [AA, Asiatic acid]
solubility at 24 h [1, 10]: 723 ± 184 µg/mL (≈ 1480 µM)
solubility at 24 h [1, 11]: 541 ± 76.8 µg/mL (≈ 1110 µM)
viability at 24 h, 0.3 µM [7]: > 90%
Toxicity to hPDLSCs [2]: no significant toxicity
mRNA expression of all markers (BMP2, RUNX2, COL1A1, WNT3A) ([3]; 24 h, normal growth medium): no observable change
Concentration required to inhibit osteoclastogenesis or bone loss [8]: up to 20 µM
Theoretical log P ([9]; ref 33): 5.8
Theoretical log P ([9]; ref 38, 39): 5.7

CC(=O)OCC1(C)C(OC(C)=O)C(OC(C)=O)CC2(C)C1CCC1(C)C2CC=C2C3C(C)C(C)CCC3(C(=O)O)CCC21C (stereo not drawn) [compound 501]
solubility at 24 h [1, 10]: 654 ± 95.5 µg/mL (≈ 1060 µM)
solubility at 24 h [1, 11]: 272 ± 31.5 µg/mL (≈ 442 µM)
viability at 5 days, 0.3 µM ([7]; day 5, general medium): < 75%
mRNA expression of all markers (BMP2, RUNX2, COL1A1, WNT3A) ([3]; 24 h, normal growth medium): no observable change

CC(=O)OC[C@@]1(C)C2CC[C@]3(C)C(CC=C4[C@@H]5[C@@H](C)[C@H](C)CC[C@]5(C(=O)NCCCN(C)C)CC[C@]43C)[C@@]2(C)C[C@@H](OC(C)=O)[C@@H]1OC(C)=O (stereo partly drawn) [compound 503]
solubility at 24 h [1, 10]: 331 ± 82.6 µg/mL (≈ 473 µM)
solubility at 24 h [1, 11]: 164 ± 28.2 µg/mL (≈ 235 µM)
viability at 24 h, 0.3 µM [7]: < 40%
mRNA expression of all markers (BMP2, RUNX2, COL1A1, WNT3A) ([3]; 24 h, normal growth medium): no observable change

CCCCOC(=O)C12CCC(C)C(C)C1C1=CCC3C4(C)CC(OC(C)=O)C(OC(C)=O)C(C)(COC(C)=O)C4CCC3(C)C1(C)CC2 (stereo not drawn) [compound 502]
solubility at 24 h [1, 10]: 14.5 ± 4.7 µg/mL (≈ 21.6 µM)
solubility at 24 h [1, 11]: 10 ± 1.5 µg/mL (≈ 14.9 µM)
